Test results: publication PMC12040169 (PLOS Biology, 2025)

Assay: in vitro
Settings: human, hela cells, % viability

Compound | viability at 28.5 h, 10 µM
CC(=O)Nc1cccc(NC(=O)c2cccc(Cn3cc(Cl)cn3)c2)c1 [CBK265899] | 90.5%
O=C(CSc1n[nH]c(-c2ccccc2Cl)n1)Nc1ccccc1F [CBK265901] | 82.9%
O=C(Nc1ccccc1-c1ccccc1)C1CN(S(=O)(=O)c2ccccc2)CCN1S(=O)(=O)c1ccccc1 (stereo not drawn) [CBK265902] | 91.1%
Cc1cccc(C(=O)Nc2ccccc2C(=O)Nc2cccc(C(=O)O)c2C)c1 [CBK265911] | 99.4%
O=C1C2(c3ccccc3)CN(CCCO)CC1(c1ccccc1)CN(CCCO)C2 [CBK265912] | 109%
CC(C)NS(=O)(=O)c1ccc(OCC(=O)Nc2ccc3c(c2)OCCO3)cc1 [CBK265915] | 106%
CCOC(=O)Cn1c(CCC(=O)O)ccc1-c1ccc(F)cc1 [CBK265916] | 97.8%
CCOC(=O)c1c(-c2ccc(C)o2)csc1NC(=O)CN1CCCCC1C (stereo not drawn) [CBK265917] | 105%
COC(=O)c1c(C)[nH]c(C(=O)CSc2ncnc3scc(-c4ccccc4)c23)c1C [CBK265918] | 95.5%
Cc1nnc(SCC(=O)N2c3ccccc3Sc3ccccc32)n1N [CBK265920] | 96.5%
COc1ccc(S(=O)(=O)N(C)CC(=O)Nc2ccc(S(N)(=O)=O)cc2)cc1 [CBK265922] | 102%
CCCn1nnc(NC(=O)COc2ccc3ccccc3c2)n1 [CBK265923] | 101%
NC1=C(c2nc3ccccc3s2)C(=O)CN1CCCN1CCOCC1 [CBK265925] | 109%
COc1ccc(-c2ccc(CCC(=O)O)n2CCc2ccccc2)cc1 [CBK265929] | 115%
NC(=O)C1CCN(C(=O)CSc2nc3ccccc3o2)CC1 [CBK265930] | 97.8%
Cc1ccc(NC(=O)Cn2cnc3sc(C(=O)Nc4ccccc4)c(C)c3c2=O)cc1 [CBK265931] | 101%
Cc1cc(C)cc(N(CC(=O)Nc2ccccc2-c2ccccc2)S(=O)(=O)c2ccccc2)c1 [CBK265933] | 92.4%
O=C(O)CCc1ccc(-c2ccc(F)cc2)n1CCc1ccccc1 [CBK265936] | 108%
O=C(CSc1ncccn1)Nc1sc2c(c1C(=O)Nc1ccccc1)CCCC2 [CBK265939] | 93%
Cn1c(=O)c2c(nc(Oc3ccccc3Cl)n2Cc2cccc(C(F)(F)F)c2)n(C)c1=O [CBK265940] | 89.7%
NC(=S)Nn1c(CCC(=O)O)ccc1-c1ccccc1 [CBK265942] | 100%
Cc1nc(SCC(=O)N2CCC(C)CC2)c2c3c(sc2n1)CCC3 [CBK265944] | 86.1%

Compound | viability at 28.5 h, 10 µM
COc1cc(CO)cc(I)c1OCC(=O)Nc1ccccc1 [CBK265950] | 112%
OCCOCCNc1ncnc2sc(-c3ccccc3)cc12 [CBK265951] | 76%
CC(=O)NC(C)(COc1nonc1C)COc1nonc1C [CBK265955] | 90.3%
O=C(Nc1cccc(NS(=O)(=O)c2ccc(Cl)cc2)c1)c1ccco1 [CBK265956] | 91.2%
O=C(CSCc1ccccc1Br)Nc1ccccc1-c1ccccc1 [CBK265959] | 88.4%
Cc1ccc(S(=O)(=O)N2CCN(C(=O)CSc3nnc4sc5ccccc5n34)CC2)cc1 [CBK265961] | 90.5%
CCc1ccccc1NC(=O)Cn1ncnc1Sc1nc2c(c(=O)n(C)c(=O)n2C)n1C [CBK265963] | 87.6%
Cc1ccc(OCC(=O)Nc2cc(Cl)ccc2O)cc1C [CBK265968] | 108%
Cn1c(SCCOc2ccccc2Cl)nnc1-c1ccncc1 [CBK265969] | 111%
O=C(O)CC(C(=O)OC1CCCCC1)N1CCOCC1 (stereo not drawn) [CBK265970] | 95.1%
NC(=O)C1CCN(C(=O)CN2CCN(Cc3ccccc3)CC2)CC1 [CBK265971C] | 82.8%
COc1ccc(CN(C(=O)CCN2C(=O)c3ccccc3S2(=O)=O)c2ccccc2O)cc1 [CBK265973] | 99.4%
COC(=O)c1ccccc1NC(=O)CNS(=O)(=O)c1c(C)cc(C)cc1C [CBK265974] | 104%
COC(=O)c1c(-c2ccc(F)cc2)csc1NC(=O)CSc1ncnc2sc3c(c12)CCC3 [CBK265976] | 103%
O=C(Cc1ccc([N+](=O)[O-])cc1)Nc1ccc(O)cc1C(=O)O [CBK265977] | 97.6%
COC(=O)c1cc(-c2ccccc2)sc1NC(=O)CSc1ncnc2sc3c(c12)CCC3 [CBK265978] | 97.4%
COc1ccc(Br)cc1C(=O)NC(=S)Nc1cc(Cl)c(O)c(Cl)c1 [CBK265979] | 89.6%
Nc1nonc1C(=O)NCCNS(=O)(=O)c1ccc(F)cc1 [CBK265980] | 88.1%
O=C(O)CCc1ccc(-c2cccs2)n1CCc1ccccc1 [CBK265983] | 113%
COCCn1c(Cc2ccccc2)nnc1SCc1ccc2ccccc2c1 [CBK265985] | 96.6%
CCc1cccc(CC)c1NC(=O)CN(c1cccc(Br)c1)S(C)(=O)=O [CBK265986] | 84.9%
C=CCN1CC2(c3ccccc3)CN(CC=C)CC(c3ccccc3)(C1)C2=O [CBK265987] | 86.3%

Compound | viability at 28.5 h, 10 µM
Cc1ccc(S(=O)(=O)N(CC(=O)Nc2ccccc2-c2ccccc2)c2cccc(C)c2)cc1 [CBK265988] | 98%
CN1CCN(CCC(=O)Nc2ccc(Cl)c(C(F)(F)F)c2)CC1 [CBK265995] | 89.9%
Cc1ccc(N(CC(=O)Nc2ccc(C)cc2C)S(=O)(=O)N2CCCC2)cc1 [CBK265998] | 110%
CCOC(=O)c1c(NC(=O)CSc2nnc[nH]2)sc2c1CCCC2 [CBK265999] | 93.1%
COC(=O)c1ccccc1NC(=O)CNS(=O)(=O)c1ccc(C)cc1 [CBK266000] | 94.7%
COc1cccc(NC(=O)CCN2C(=O)c3ccccc3S2(=O)=O)c1 [CBK266003] | 92.3%
CNc1cc(N2CCN(S(=O)(=O)c3ccc(C)cc3)CC2)ccc1[N+](=O)[O-] [CBK266005] | 104%
O=C(O)COc1ccc(NC(=O)c2ccc3c(c2)C(=O)N(C2CCCCC2)C3=O)cc1 [CBK266009] | 92.1%
CCOC(=O)c1ccc(-n2c(CCC(=O)O)ccc2-c2ccc(F)cc2)cc1O [CBK266010] | 94.1%
CCOC(=O)c1cnc2c(C(F)(F)F)cccc2c1NCCCN1CCOCC1 [CBK266012] | 92.4%
CCN(CC)Cc1cc(C(C)(C)C)oc1C(=O)O [CBK266013C] | 110%
O=C(O)CCc1ccc(-c2cccs2)n1-c1ccc(C(=O)O)cc1 [CBK266016] | 90.9%
COc1ccc(-c2ccc(CCC(=O)O)n2NC(N)=S)cc1 [CBK266018] | 102%
Cc1cc(C)c(S(=O)(=O)Nc2ccc(S(=O)(=O)Nc3ccc(Cl)cc3Cl)cc2)c(C)c1 [CBK266022] | 109%
CC(C)c1ccc(OCCN2CCNCC2)cc1 [CBK266024C] | 96%
CN(C)S(=O)(=O)c1ccc(C(=O)Nc2cccc(N3Cc4ccccc4C3)c2)cc1 [CBK266025] | 98.8%
Cc1cc(C)c(OCCCN2CCCCCC2)c(Cl)c1 [CBK266026G] | 101%
c1ccc(Oc2cccc(OCCCCN3CCNCC3)c2)cc1 [CBK266027G] | 92.6%
COc1ccccc1NC(=O)COc1cccc(Cl)c1Cl [CBK266029] | 106%
O=C(COc1ccc(NS(=O)(=O)c2ccc3c(c2)Cc2ccccc2-3)cc1)N1CCOCC1 [CBK266030] | 101%
CCC(Oc1ccccc1)C(=O)Nc1ccccc1-c1ccccc1 (stereo not drawn) [CBK266031] | 108%
O=S(=O)(NCCOCc1ccccc1)c1ccc2c(c1)Cc1ccccc1-2 [CBK266032] | 101%

Compound | viability at 28.5 h, 10 µM
COc1ccc(N2C(=O)C3C(CC(C)C)NC4(C(=O)N(CC(=O)Nc5ccc(C)cc5)c5ccccc54)C3C2=O)cc1 (stereo not drawn) [CBK266034] | 95.9%
CC(C)(C)NC(=O)CSc1nnc(Cc2cccc3ccccc23)n1-c1ccccc1 [CBK266039] | 118%
N#Cc1cccc(CSc2nnc(Nc3ccccc3)n2-c2ccccc2)c1 [CBK266040] | 107%
Cc1c(Cl)cccc1NC(=O)CSc1nnc(Cc2cccc3ccccc23)n1-c1ccccc1 [CBK266042] | 98.7%
CNC(=O)CSc1nnc(COc2cccc3ccccc23)n1-c1ccccc1 [CBK266043] | 102%
Cc1ccc(SCCN2CCNCC2)cc1 [CBK266045G] | 99.6%
Cc1ccccc1OCC(=O)Nc1c(C)n[nH]c1C [CBK266046C] | 106%
CCOc1ccc(NC(=O)C(C)Sc2nc3ccc(F)cc3[nH]2)cc1 (stereo not drawn) [CBK266047] | 107%
Cc1ccc(S(N)(=O)=O)cc1NC(=O)c1ccc(S(=O)(=O)N(C)C)cc1 [CBK266050] | 103%
COc1cc(C(c2c[nH]c3ccccc23)c2c[nH]c3ccccc23)c(Br)cc1OC(C)=O [CBK266051] | 107%
C=CCn1c(SCC(=O)Nc2cccc(C(F)(F)F)c2)nnc1C12CC3CC(CC(C3)C1)C2 [CBK266054] | 105%
N/C(=N\OC(=O)CSc1ccccc1)c1ccccn1 [CBK266056] | 105%
Cc1nn(C)c(C)c1NC(=O)c1ccc(S(=O)(=O)N(C)C)cc1 [CBK266059] | 93.8%
COc1ccc(NC(=O)CSc2nc3ccccc3n2-c2ccccc2)c([N+](=O)[O-])c1 [CBK266060] | 91.8%
CCOc1cc(C(c2c[nH]c3ccccc23)c2c[nH]c3ccccc23)cc([N+](=O)[O-])c1O [CBK266061] | 101%
O=C(Nc1ccc(Br)c2cccnc12)c1ccc(COc2ccccc2)cc1 [CBK266062] | 94.2%
Cc1ccc(OCc2cccc3nsnc23)cc1[N+](=O)[O-] [CBK266063] | 98.2%
O=S1(=O)N=C(N2CCN(Cc3ccc4c(c3)OCO4)CC2)c2ccccc21 [CBK266064] | 104%
Cc1ccc(OCc2nnc(SCc3cccc(C#N)c3)n2Cc2ccccc2)cc1C [CBK266065] | 90.5%
c1ccc(SCCCN2CCNCC2)cc1 [CBK266067G] | 100%
CCC(C(=O)Nc1ccccc1C(=O)Nc1c(Cl)cccc1Cl)c1ccccc1 (stereo not drawn) [CBK266068] | 98.4%
